Here are results for eight compounds from PubChem BioAssay (NCI).

Among the test systems are UO-31 renal; MDA-MB-231 breast; CAKI-1 renal; SK-MEL-28 melanoma; HL-60(TB) leukemia; SF-539 CNS; KM12 colon; EKVX NSCLC; SR leukemia; TK-10 renal; HT29 colon; RXF 393 renal; 786-0 renal; OVCAR-5 ovarian; M14 melanoma; OVCAR-4 ovarian; A549 NSCLC; A498 renal; NCI-H522 lung.
Assay in all cases: inhibition of tumour cell growth, NCI panel, 48 h

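Five concentrations, 48 hours, 96-well plates. TGI: total growth inhibition.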 Some results are limits rather than exact numbers.

Consider `Nc1ncnc2c1ncn2C1C=CC(COS(N)(=O)=O)C1` (centres undefined), for which the TGI with UO-31 renal was > 100 µM; with MDA-MB-231 breast it was > 100 µM; in the test on CAKI-1 renal, 57.6 µM; in the test with SK-MEL-28 melanoma it was > 100 µM; in the test with HL-60(TB) leukemia, 30.1 µM; with SF-539 CNS, 7.12 µM. Besides, the TGI with KM12 colon, in the test with EKVX NSCLC, with SR leukemia, in the test with TK-10 renal, with HT29 colon and in the test with RXF 393 renal was > 100 µM throughout. Moreover, the TGI in the test with 786-0 renal, with OVCAR-5 ovarian, in the test on M14 melanoma, in the test on OVCAR-4 ovarian and in the test with A549 NSCLC was > 100 µM each time.

In the case of `COC(=O)/C(=N\NC(=S)NN)C(C(=O)OC)C(=O)C(=O)Nc1cccc(C(F)(F)F)c1` (centres undefined), the TGI in the test on UO-31 renal, with MDA-MB-231 breast, with CAKI-1 renal, with SK-MEL-28 melanoma, in the test on HL-60(TB) leukemia and with SF-539 CNS was > 100 µM throughout. For the same compound, the TGI in the test on KM12 colon, in the test with EKVX NSCLC, in the test on TK-10 renal, in the test on HT29 colon, with RXF 393 renal and in the test on 786-0 renal was > 100 µM in each case. Also, the TGI in the test on A498 renal, in the test on OVCAR-5 ovarian, in the test with M14 melanoma, in the test with NCI-H522 lung, with OVCAR-4 ovarian and with A549 NSCLC was > 100 µM throughout.

In the case of `CCOC(=O)N/N=C(\Cc1ccc([N+](=O)[O-])cc1)OCC`, the TGI in the test with UO-31 renal, with MDA-MB-231 breast, in the test on SF-539 CNS, with KM12 colon, with EKVX NSCLC and in the test with SR leukemia was > 100 µM throughout. Besides, the TGI in the test on TK-10 renal, with HT29 colon, in the test with RXF 393 renal, in the test with 786-0 renal, in the test on OVCAR-5 ovarian and in the test with M14 melanoma was > 100 µM in each case. Moreover, the TGI with NCI-H522 lung, with OVCAR-4 ovarian and in the test on A549 NSCLC was > 100 µM each time.

Regarding `COC(=O)c1cnn2c1ccc1ccccc12`, the TGI in the test with UO-31 renal, in the test on MDA-MB-231 breast, in the test on CAKI-1 renal, with SK-MEL-28 melanoma, in the test on HL-60(TB) leukemia and with SF-539 CNS was > 100 µM throughout. For the same compound, the TGI with KM12 colon, with EKVX NSCLC, in the test on TK-10 renal, with HT29 colon, with RXF 393 renal and in the test on 786-0 renal was > 100 µM in each case. For the same compound, the TGI in the test on A498 renal, in the test with OVCAR-5 ovarian, with M14 melanoma, with NCI-H522 lung and in the test with A549 NSCLC was > 100 µM in each case.

As to `C/C(=N\Nc1nc2ccccc2s1)c1cnccn1`, the TGI in the test on UO-31 renal was 23.6 µM; in the test on MDA-MB-231 breast, > 88.1 µM; in the test on CAKI-1 renal, > 42.2 µM; in the test with SK-MEL-28 melanoma, > 100 µM; with SF-539 CNS, 36.7 µM; in the test on KM12 colon it was 15.2 µM. Further, the TGI in the test on EKVX NSCLC is 5 µM; in the test with SR leukemia it was > 100 µM; with HT29 colon, 2.81 µM; with RXF 393 renal, 40.7 µM; in the test on 786-0 renal it was > 100 µM; with OVCAR-5 ovarian, > 77.7 µM. For the same compound, the TGI in the test on M14 melanoma was 12.3 µM; in the test on NCI-H522 lung, 2.92 µM; in the test with OVCAR-4 ovarian it was > 100 µM; with A549 NSCLC, > 65.5 µM.

On to `C(=NCCCN1CCN(CCCN=Cc2cccc3ccccc23)CC1)c1cccc2ccccc12`, for which the TGI in the test on UO-31 renal, in the test with MDA-MB-231 breast, in the test on CAKI-1 renal, in the test on SK-MEL-28 melanoma, with SF-539 CNS and with KM12 colon was > 100 µM throughout. In addition, the TGI with EKVX NSCLC was > 100 µM; in the test on SR leukemia, > 100 µM; in the test with TK-10 renal, > 100 µM; in the test on HT29 colon, > 100 µM; with RXF 393 renal it was 78.2 µM; in the test with 786-0 renal it was > 100 µM. Besides, the TGI in the test with OVCAR-5 ovarian, with M14 melanoma, with NCI-H522 lung, in the test on OVCAR-4 ovarian and with A549 NSCLC was > 100 µM each time.

As to `COC(=O)CCc1ccc2c(c1)CC1(Cc3ccccc3C1)C2`, the TGI in the test on UO-31 renal, in the test on MDA-MB-231 breast, in the test with HL-60(TB) leukemia, in the test with SF-539 CNS, in the test on KM12 colon and in the test on EKVX NSCLC was > 100 µM each time. For the same compound, the TGI in the test on TK-10 renal, with HT29 colon, in the test on RXF 393 renal, with 786-0 renal, with A498 renal and in the test with OVCAR-5 ovarian was > 100 µM in each case. The TGI with M14 melanoma, in the test on NCI-H522 lung, in the test with OVCAR-4 ovarian and in the test with A549 NSCLC was > 100 µM each time.

For `CCOC(=O)c1c[nH]cc1-c1cn(S(=O)(=O)c2ccccc2)cc1C`, the TGI in the test on UO-31 renal was > 100 µM; in the test with MDA-MB-231 breast it was > 100 µM; with CAKI-1 renal, 48.4 µM; in the test on SK-MEL-28 melanoma it was 38.4 µM; in the test with HL-60(TB) leukemia, > 100 µM; in the test on SF-539 CNS it was 53.5 µM. Further, the TGI was 49 µM in the test on KM12 colon; 71.3 µM in the test on EKVX NSCLC; > 100 µM with TK-10 renal; 52.8 µM with HT29 colon; > 100 µM in the test with RXF 393 renal; > 100 µM in the test on 786-0 renal. Further, the TGI with A498 renal is > 10 µM; with OVCAR-5 ovarian, > 100 µM; in the test with M14 melanoma it was 44.3 µM; in the test with NCI-H522 lung, 46.4 µM; in the test on OVCAR-4 ovarian, > 100 µM; in the test with A549 NSCLC, > 100 µM.
